In general, IC50 refers to the point on the concentration scale where inhibition reaches its midpoint. Read a high IC50 as a need for much substance.

The record followed here is patent US20200277268A1, “PENTAFLUOROPHENYL SULFONAMIDE COMPOUNDS, COMPOSITIONS AND USES THEREOF” (DALRIADA THERAPEUTICS INC., priority 2017, published 2020).

“Also recorded” adds a separate entry of the source.

One experiment deals with MV4-11. As to the kind of experiment: CellTiter-Blue cell viability, MV4-11. The format is cell-based. Particulars: Homo sapiens, MV4-11. The essentials: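 Cells were seeded at 1×10^4/well, grown 24 h in FBS-supplemented medium, then exposed to compound (0.097656–50 μM) for 72 h at 37° C, 5% CO2. Viability was read by CellTiter-Blue fluorescence (560/590 nm) after 1–4 h reagent incubation, with IC50 derived by non-linear regression.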
In general terms: The colour change of resazurin is a common sign of viable cells or microbes.

A further experiment has as its system LN-18. In words: Cell viability, glioblastoma LN-18. Format: cell-based. As to conditions: Homo sapiens, glioblastoma cell line. The procedure:
The anti-cancer efficacy of exemplary compounds of the application were assessed in vitro against different cancer cell lines. […] 1×10^4 cells/well were plated in 96-well assay plates in culture medium. […] In some instances, FBS was removed for periods ranging from 16-24 hours, and re-introduced with test compound addition. After 24 hrs, test compounds and vehicle controls were added to appropriate wells such that the final volume was 100 μl in each well. The cells were cultured for the desired test exposure period (72 hours) at 37° C. and 5% CO2. The assay plates were removed from […] incubator and 20 μl/well of CellTiter-Blue® Reagent was added. The plates were incubated using standard cell culture conditions for 1-4 hours. Afterwards, the plates were shaken for 10 seconds and florescence was recorded at 560/590 nm using a Cytation 3 spectrophotometer. IC50 values were determined using non-linear regression analysis with GraphPad Prism 6.0 (GraphPad Software Inc.).

A further experiment concerns OCI-AML3. As to the kind of experiment: Cell viability, AML OCI-AML3. The format is cell-based. As to conditions: Homo sapiens, OCI-AML-3, Table 4. As to the method:
(§1) The anti-cancer efficacy of exemplary compounds of the application were assessed in vitro against different cancer cell lines. Cell viability was examined following treatment at various concentrations of inhibitor (0.097656-50 μM) using a CellTiter-Blue® cell viability assay. 1×10^4 cells/well were plated in 96-well assay plates in culture medium. All cells were grown in DMEM, IMDM and RPMI-1640 supplemented with 10% fetal bovine serum (FBS). In some instances, FBS was removed for periods ranging from 16-24 hours, and re-introduced with test compound addition. After 24 hrs, test compounds and vehicle controls were added to appropriate wells such that the final volume was 100 μl in each well. The cells were cultured for the desired test exposure period (72 hours) at 37° C. and 5% CO2. The assay plates were removed from […] incubator and 20 μl/well of CellTiter-Blue® Reagent was added. The plates were incubated using standard cell culture conditions for 1-4 hours. Afterwards, the plates were shaken for 10 seconds and florescence was recorded at 560/590 nm using a Cytation 3 spectrophotometer. IC50 values were determined using non-linear regression analysis with GraphPad Prism 6.0 (GraphPad Software Inc.). […]

For experiment [1], the target named is T1, UBA5 (Homo sapiens, UniProt Q9GZZ9).
T1 construct: Constructs of full length human UBA5 (1-404) were cloned into a pET28b(+) vector; His-SUMO (N, cleaved yes); made in house; host or cells: E. coli BL21 (DE3) RILP
As to the kind of experiment: Thermal shift assay of UBA5. Format: binding. Particulars: 50 μM I-1, 0.5 μM UBA5; without compound 46.43° C. The procedure: SYPRO Orange protein gel stain (Sigma-Aldrich) was used to conduct thermal shift assays. This was done on a Bio-Rad C1000 Touch ThermoCycler with a CFX96 Real-Time optical unit. Final UBA5 protein concentrations of 0.5 μM were used in 50 mM HEPES, pH 7.4. UBA5 was pre-incubated with test compound I-1 for 4 hours at 30° C. Next, SYPRO orange was added to the samples for a final 5× (10 μM) concentration from the original 5000× stock. DMSO content was 5% (v/v). Heating was done in 0.5° C. increases with 30 seconds in between, from 10 to 75° C. Fluorescence intensity was measured at […] followed by excitation at […]. This emission intensity was graphed against temperature and then recorded as a first derivative curve. The temperature of the resultant curve minima provided the melting temperature (Tm) of the protein. Experiments were run in triplicates.

For another experiment, the system named is PL-21. As to the kind of experiment: Cell viability, AML PL-21. Particulars: Table 4. The format is cell-based. The procedure: as §1
Experiment [2] deals with T1, UBA5. In words: MS study of UBA5 covalent adduct. The format is binding. Particulars: 100 μM I-1, 50 μM UBA5. The procedure: To further characterize covalent modification of UBA5 by I-1, samples were incubated as 100 μM I-1 and 50 μM UBA5 (50 mM HEPES, pH 7.4) at 30° C. for 2 hours, followed by storage overnight at 4° C. prior to submission for LC-MS analysis.
Another experiment has as its system D458. In words: Cell viability, medulloblastoma D458. Format: cell-based. As to conditions: medulloblastoma cell line. As to the method:
as §1

For another experiment, the system named is BSA, lysozyme, STAT3/5. As to the kind of experiment: 19F NMR screen against Cys-containing proteins. As to conditions: 100 μM I-1, 2 hours at 37° C. Format: binding. The procedure: To assess potential reactivity of I-1 against Cys containing proteins, a series of ^19F NMR studies were conducted with BSA, lysozyme, STAT3, and STATS. […] All samples were prepared in 100 mM HEPES pH 7.4, and 100 μM 5-fluoro-Trp, with a final concentration of 10% D20 and 10% DMSO. The samples were incubated for 2 hours at 37° C. prior to data collection. All spectra were normalized and referenced according to the fluorine peak of 5-fluoro-Trp.

The target of experiment [3] is T1, UBA5. As to the kind of experiment: In vitro transthiolation assay (UFM1-UFC1 conjugate formation). The format is biochemical. Particulars: 50 nM UBA5, 3.5 hours pre-incubation, 0 to 1 μM I-1. The procedure:
UBA5 and test compounds were pre-incubated for a period of 8 hours at 37° C. prior to addition of other assay components. After this period, UFM1, UFC1 and ATP were introduced to initiate the reactions. Final concentrations in the reactions were 250 nM UBA5, 10 μM UFM1, 10 μM UFC1 and 100 μM ATP for total assay volumes of 20 μL, in buffer consisting of 50 mM 4-(2-hydroxyethyl)-1-piperazineethanesulfonic acid (HEPES),), 0.5 mM TCEP, 5 mM MgCl2, at pH 7.4. A final concentration of 10% (v/v) DMSO was present in all reactions. The reactions were allowed to proceed for 1 hour before stopping with 4× Laemmli buffer (Bio-Rad 1610747). Samples were then run on 4-20% non-reducing SDS-PAGE stain-free gels to separate protein conjugates. Gels were subsequently imaged using Stain-free imaging technology (Bio-Rad). Image Lab software was used to quantify the intensity of the UFM1-UFC1 conjugate bands to controls with no inhibitor present and reported as % inhibition values.
I-1 was evaluated as well using differing transthiolation assay conditions, with a reduction in UBA5 concentration to 50 nM and a pre-incubation period of 3.5 hours at 37° C. of UBA5 with I-1. This was followed by a 30 minute reaction time after UFM1, UFC1 and ATP addition. A final concentration of 5% (v/v) DMSO was used.

In experiment [4] the test system is healthy keratinocyte cells (HaCaT). As to the kind of experiment: CellTiter-Blue cell viability, HaCaT. The format is cell-based. Particulars: Homo sapiens, non-cancerous, 72 hours. As to the method:
The anti-cancer efficacy of exemplary compounds of the application were assessed in vitro against different cancer cell lines. Cell viability was examined following treatment at various concentrations of inhibitor (0.097656-50 μM) using a CellTiter-Blue® cell viability assay. 1×10^4 cells/well were plated in 96-well assay plates in culture medium. All cells were grown in DMEM, IMDM and RPMI-1640 supplemented with 10% fetal bovine serum (FBS). In some instances, FBS was removed for periods ranging from 16-24 hours, and re-introduced with test compound addition. After 24 hrs, test compounds and vehicle controls were added to appropriate wells such that the final volume was 100 μl in each well. The cells were cultured for the desired test exposure period (72 hours) at 37° C. and 5% CO2. The assay plates were removed from 3° C. incubator and 20 μl/well of CellTiter-Blue® Reagent was added. The plates were incubated using standard cell culture conditions for 1-4 hours. Afterwards, the plates were shaken for 10 seconds and florescence was recorded at 560/590 nm using a Cytation 3 spectrophotometer. IC50 values were determined using non-linear regression analysis with GraphPad Prism 6.0 (GraphPad Software Inc.).

T1 sequence (Q9GZZ9 whole entry): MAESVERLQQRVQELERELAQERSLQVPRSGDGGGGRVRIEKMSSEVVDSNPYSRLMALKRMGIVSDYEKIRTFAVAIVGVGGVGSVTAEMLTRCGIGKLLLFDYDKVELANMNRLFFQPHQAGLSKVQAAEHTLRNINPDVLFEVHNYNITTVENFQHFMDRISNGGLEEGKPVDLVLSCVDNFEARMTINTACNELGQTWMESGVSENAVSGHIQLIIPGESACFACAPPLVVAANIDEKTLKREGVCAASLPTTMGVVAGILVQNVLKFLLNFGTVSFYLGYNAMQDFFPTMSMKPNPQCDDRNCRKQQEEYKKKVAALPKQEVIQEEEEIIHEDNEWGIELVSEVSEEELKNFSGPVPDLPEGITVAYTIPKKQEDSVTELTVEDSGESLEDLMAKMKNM

In the case of `O=S(=O)(c1c(F)c(F)c(F)c(F)c1F)N(Cc1ccc(F)cc1)C1CC1` [Compound I-1, N-cyclopropyl-2,3,4,5,6-pentafluoro-N-(4-fluorobenzyl)benzenesulfonamide], the IC50 in the experiment with MV4-11 (AML cell line, 72 hours) came to 0.47 µM; with MV4-11 (AML, Table 4), 0.6 µM; in the experiment with LN-18, 4.92 µM; with OCI-AML3 it was 5.6 µM; with PL-21, 3.5 µM; in the experiment on D458 it was 2.2 µM. Further, in experiment [4], half-maximal inhibition (IC50) was put at 12.5 µM. For the same compound, the “melting temperature (Tm) of UBA5 with compound” value at UBA5 [1] amounted to 44.33 °C. The “UBA5 covalent adduct formation by MS” value at UBA5 [2] is “covalent adduct formation”. For the same compound, the “reactivity towards Cys-containing proteins (free fluoride release)” value in the experiment with BSA, lysozyme, STAT3/5 is recorded as “no significant fluoride release; also recorded: unreactive”. The UFM1-UFC1 conjugate formation result at UBA5 [3] is recorded as “no conjugate formation at sub-micromolar concentrations”.
